Experimental data taken from patent EP0417165B1, “POLYPEPTIDE COMPOUNDS HAVING GROWTH HORMONE RELEASING ACTIVITY” (POLYGEN HOLDING CORPORATION, priority 1988, dated 1994).
Non-standard residues stand in square brackets, D forms with d. Residues, ends and D or L forms follow the SMILES beside them.

Test system: GH Release
Experiment: In vivo GH release in pentobarbital anesthetized rats (serum GH by RIA)
Set-up: species or system Sprague-Pawley rats
Settings: sacrificed 10 minutes after injection, mean ± SEM, six rats
Method: Immature female Sprague-Pawley rats were obtained from the Charles River Laboratories (Wilmington, MA). After arrival they were housed at 25° C with a 14:10 hr light:dark cycle. Water and Purina rat chow were available ad libitum. Pups were kept with their mothers until 21 days of age.
Normal saline with 0.1% gelatin was the vehicle for intravenous (i.v.) injections of the peptides. The anesthetized rats, weighing 55-65 grams, were injected i.v. with the quantity of growth hormone releasing compounds indicated in Table 3. Injection was made as a 0.1 mL solution into the jugular vein.
All animals were sacrificed by guillotine 10 minutes after the final test injection (see Table 3). Trunk blood for the determination of blood GH levels was collected following decapitation. After allowing the blood to clot, it was centrifuged and the serum was separated from the clot. Serum was kept frozen until the day of sampling for radioimmunoassay (RIA) determination of growth hormone levels according to the following procedure, as developed by the National Institute of Arthritis, Diabetes and Digestive and Kidney Diseases (NIADDK).
Reagents are generally added to the RIA analysis tubes at a single sitting, at refrigerator temperature (about 4°C) in the following sequence: • (a) buffer, • (b) "cold" (i.e., non-radioactive) standard or unknown serum sample to be analyzed, • (c) radio-iodinated growth hormone antigen, and • (d) growth hormone antiserum. Reagent addition is generally carried out so that there is achieved a final RIA tube dilution of about 1:30,000 (antiserum to total liquid volume; vol:vol).
The mixed reagents are then typically incubated at room temperature (about 25°C) for about 24 hours prior to addition of a second antibody (e.g., goat or rabbit anti-monkey gamma globulin serum) which binds to and causes precipitation of the complexed growth hormone antiserum. Precipitated contents of the RIA tubes are then analyzed for the number of counts in a specified period of time in a gamma scintillation counter. A standard curve is prepared by plotting number of radioactive counts versus growth hormone (GH) level. GH levels of unknowns are then determined by reference to the standard curve.
Serum GH was measured by RIA with reagents provided by the National Hormone and Pituitary Program.
Serum levels in Table 3 are recorded in ng/mL in terms of the rat GH standard of 0.61 International Units/mg (IU/mg). Data is recorded as the mean +/-standard error of the mean (SEM). Statistical analysis was performed with Student's t-test. In Table 3 the results shown are the average of studies with six rats.

[1] = Total Dose 0.3 µg i.v., 26 day old female rats, study with Control GH 142±43
[2] = Total Dose 0.3 µg i.v., 26 day old female rats, study with Control GH 208±47
[3] = Total Dose 1.0 µg i.v., 26 day old female rats, study with Control GH 142±43
[4] = Total Dose 1.0 µg i.v., 26 day old female rats, study with Control GH 208±47
[5] = Total Dose 1.0 µg i.v., 29 day old female rats, study with Control GH 108±17
[6] = Total Dose 3.0 µg i.v., 26 day old female rats, study with Control GH 142±43
[7] = Total Dose 3.0 µg i.v., 26 day old female rats, study with Control GH 208±47
[8] = Total Dose 3.0 µg i.v., 29 day old female rats, study with Control GH 108±17

SMILES | GH Released by Compound in Column A [1] [ng/mL] | GH Released by Compound in Column A [2] [ng/mL] | GH Released by Compound in Column A [3] [ng/mL] | GH Released by Compound in Column A [4] [ng/mL] | GH Released by Compound in Column A [5] [ng/mL] | GH Released by Compound in Column A [6] [ng/mL] | GH Released by Compound in Column A [7] [ng/mL] | GH Released by Compound in Column A [8] [ng/mL] | GH Released by Compound in Column A (Total Dose 10.0 µg i.v., 26 day old female rats, study with Control GH 142±43) [ng/mL] | GH Released by Compound in Column A (Total Dose 10.0 µg i.v., 29 day old female rats, study with Control GH 108±17) [ng/mL] | GH Released by Compound in Column A (Total Dose 30.0 µg i.v., 26 day old female rats, study with Control GH 142±43) [ng/mL] | GH Released by Compound in Column A (Total Dose 0.3 µg i.v., 26 day old female rats, study with Control GH 151±16) [ng/mL] | GH Released by Compound in Column A (Total Dose 1.0 µg i.v., 26 day old female rats, study with Control GH 151±16) [ng/mL] | GH Released by Compound in Column A (Total Dose 3.0 µg i.v., 26 day old female rats, study with Control GH 111±25) [ng/mL] | GH Released by Compound in Column A (Total Dose 3.0 µg i.v., 26 day old female rats, study with Control GH 151±16) [ng/mL] | GH Released by Compound in Column A (Total Dose 0.3 µg i.v., 29 day old female rats, study with Control GH 108±17) [ng/mL]
C[C@H](N)C(=O)N[C@H](Cc1c[nH]c2ccccc12)C(=O)N[C@@H](C)C(=O)N[C@@H](Cc1c[nH]c2ccccc12)C(=O)N[C@H](Cc1ccccc1)C(=O)N[C@@H](CCCCN)C(N)=O [Ala-DTrp-Ala-Trp-DPhe-Lys-NH₂] (H-A[dW]AW[dF]K-NH2) | 303 ± 41 | 265 ± 96 | 729 ± 115 | 754 ± 164 | 745 ± 68 | 1164 ± 215 | 1449 ± 238 | 1673 ± 352 | 2353 ± 149 | 2388 ± 269 | 2484 ± 110 |  |  |  |  | 
C[C@H](NC(=O)[C@@H](N)Cc1c[nH]cn1)C(=O)N[C@H](Cc1c[nH]c2ccccc12)C(=O)N[C@@H](C)C(=O)N[C@@H](Cc1c[nH]c2ccccc12)C(=O)N[C@H](Cc1ccccc1)C(=O)N[C@@H](CCCCN)C(N)=O [His-Ala-DTrp-Ala-Trp-DPhe-Lys-NH₂] (H-HA[dW]AW[dF]K-NH2) |  |  |  |  |  |  |  |  |  |  |  | 261 ± 32 | 830 ± 103 | 2588 ± 341 | 2365 ± 478 | 
C[C@H](NC(=O)[C@@H](Cc1c[nH]c2ccccc12)NC(=O)[C@@H](N)Cc1c[nH]cn1)C(=O)N[C@@H](Cc1c[nH]c2ccccc12)C(=O)N[C@H](Cc1ccccc1)C(=O)N[C@@H](CCCCN)C(N)=O [His-DTrp-Ala-Trp-DPhe-Lys-NH₂] (H-H[dW]AW[dF]K-NH2) | 533 ± 77 | 660 ± 128 | 1656 ± 213 | 1669 ± 257 | 2614 ± 349 | 2653 ± 378 | 3078 ± 629 | 3215 ± 547 |  |  |  |  |  |  |  | 764 ± 62
